Laboratory results as given in patent US11464770B2, “Anticancer pharmaceutical composition” (NATIONAL CANCER CENTER, priority 2016, dated 2022).
Read-outs that look alike come from different tables or passages of the source.

Key:
[1] = test system: bladder cancer cell lines; test: Cell based assay, cell viability (CellTiter-Glo), bladder cancer cell lines; settings: 72 hours treatment, 0 to 2 μM, CellTiter-Glo
Procedure: (§1) Commercially available bladder cancer, prostate cancer, lung cancer, breast cancer, blood cancer, pancreatic cancer, colorectal cancer, brain cancer, neuroblastoma, melanoma, liver cancer, cervical carcinoma, ovarian cancer, renal cancer, and papilloma cell lines were each treated with trypsin-EDTA and cultured, followed by being seeded in each well of a 96 well plate. After 24 hours of treatment at constant temperature, the respective cells were treated with the candidate compound so that a final concentration became 0 to 2 μM. The treated cells were additionally cultured for 72 hours, and cell viability was measured by using an ATP detection method (CellTiter-Glo® Luminescent Cell Viability Assay, Promega).

[2] = test system: prostate cancer cell lines (e.g. DU145/TXR); test: Cell based assay, cell viability (CellTiter-Glo), prostate cancer cell lines; settings: Homo sapiens, 72 hours treatment, final concentration 0 to 2 μM
Procedure: as §1

melanoma cell lines = test: Cell based assay, cell viability (CellTiter-Glo), melanoma cell lines; settings: Homo sapiens; LOX-IMVI cell line
Procedure: as §1

liver cancer cell lines = test: Cell based assay, cell viability (CellTiter-Glo), liver cancer cell lines; settings: Homo sapiens, SK-HEP1; SK-HEP-1 cell line
Procedure: as §1

[3] = 253J cells, read-out: IC50, bladder cancer cell line 253J
[4] = 5637 cells, read-out: IC50, bladder cancer cell line 5637
[5] = Homo sapiens, T-24, T24 cells, read-out: IC50, bladder cancer cell line T24
[6] = Homo sapiens, J82 cells, read-out: IC50, bladder cancer cell line J82
[7] = CWR22 cells, read-out: IC50, prostate cancer cell line CWR22
[8] = DU-145, DU145/TXR cells, read-out: IC50, prostate cancer cell line DU145/TXR
[9] = DU-145, DU145 cells, read-out: IC50, prostate cancer cell line DU145
[10] = LNcap cells, read-out: IC50, prostate cancer cell line LNcap
[11] = Homo sapiens, UMUC3, UM-UC-3 cells, read-out: IC50, bladder cancer cell line UM-UC-3
[12] = Homo sapiens, KU-19-19 cells, read-out: IC50, bladder cancer cell line KU-19-19
[13] = MBT-2 cells, read-out: IC50, bladder cancer cell line MBT-2
[14] = PC-3 cells, read-out: IC50, prostate cancer cell line PC-3

| Structure (SMILES) | IC50 [1, 3] [nM] | IC50 [1, 4] [nM] | IC50 [1, 5] [nM] | IC50 [1, 6] [nM] | IC50 [2, 7] [nM] | IC50 [2, 8] [nM] | IC50 [2, 9] [nM] | IC50 [2, 10] [nM] | IC50 (melanoma cell lines) [nM] | IC50 (liver cancer cell lines) [nM] | IC50 [1, 11] [nM] | IC50 [1, 12] [nM] | IC50 [1, 13] [nM] | IC50 [2, 14] [nM] |
| --- | --- | --- | --- | --- | --- | --- | --- | --- | --- | --- | --- | --- | --- | --- |
| CC(=O)c1c([S+]([O-])Cc2nonc2C)[nH]c2c(Br)ccc(Cl)c2c1=O (stereo not shown) [Compound 106, 3-acetyl-8-bromo-5-chloro-2-(((4-methyl-1,2,5-oxadiazol-3-yl)methyl)sulfinyl)quinolin-4(1H)-one] | > 2000 | > 2000 | > 2000 | > 2000 | > 2000 | > 2000 | > 2000 | > 2000 | > 2000 | > 2000 | – | – | – | – |
| CC(=O)c1c(SCc2cc(F)cc(F)c2)[nH]c2c(Br)ccc(Cl)c2c1=O [Compound 45, 3-acetyl-8-bromo-5-chloro-2-((3,5-difluorobenzyl)thio)quinolin-4(1H)-one] | > 2000 | > 2000 | > 2000 | > 2000 | > 2000 | > 2000 | > 2000 | > 2000 | > 2000 | > 2000 | > 2000 | > 2000 | > 2000 | > 2000 |
| CC(=O)c1c([S+]([O-])Cc2ccc(C(F)(F)F)nc2C)[nH]c2c(Br)ccc(Cl)c2c1=O (stereo not shown) [Compound 102, 3-acetyl-8-bromo-5-chloro-2-(((2-methyl-6-(trifluoromethyl)pyridin-3-yl)methyl)sulfinyl)quinolin-4(1H)-one] | – | > 2000 | 1030 | > 2000 | 1490 | 1120 | 1650 | > 2000 | 860 | > 2000 | – | – | – | 1830 |
| CC(=O)c1c(S(=O)(=O)Cc2ccccc2)nc2c(Br)ccc(Cl)c2c1O [Compound 54, 1-(2-(benzylsulfonyl)-8-bromo-5-chloro-4-hydroxyquinolin-3-yl)ethan-1-one] | > 2000 | > 2000 | > 2000 | > 2000 | > 2000 | > 2000 | > 2000 | > 2000 | > 2000 | > 2000 | – | – | > 2000 | > 2000 |
| COc1cccc2[nH]c(SCc3ccc(S(F)(F)(F)(F)F)cc3)c(C(C)=O)c(=O)c12 [Compound 92, 3-acetyl-5-methoxy-2-((4-(pentafluoro--sulfanyl)benzyl)thio)quinolin-4(1H)-one] | > 2000 | > 2000 | > 2000 | > 2000 | > 2000 | > 2000 | > 2000 | > 2000 | > 2000 | > 2000 | > 2000 | > 2000 | > 2000 | > 2000 |
| CC(=O)c1c([S+]([O-])C(C)C)[nH]c2c(Br)ccc(Cl)c2c1=O (stereo not shown) [Compound 25, 3-acetyl-8-bromo-5-chloro-2-(isopropylsulfinyl)quinolin-4(1H)-one] | > 2000 | > 2000 | > 2000 | > 2000 | > 2000 | > 2000 | > 2000 | > 2000 | > 2000 | > 2000 | > 2000 | > 2000 | > 2000 | > 2000 |
| COc1ccccc1Sc1[nH]c2c(Br)ccc(Cl)c2c(=O)c1C(C)=O [Compound 14, 3-acetyl-8-bromo-5-chloro-2-((2-methoxyphenyl)thio)quinolin-4(1H)-one] | > 2000 | > 2000 | > 2000 | > 2000 | > 2000 | > 2000 | > 2000 | > 2000 | > 2000 | > 2000 | > 2000 | > 2000 | > 2000 | > 2000 |
| CC(=O)c1c([S+]([O-])Cc2ccc(C#N)s2)[nH]c2c(Br)ccc(Cl)c2c1=O (stereo not shown) [Compound 98, 5-(((3-acetyl-8-bromo-5-chloro-4-oxo-1,4-dihydroquinolin-2-yl)sulfinyl)methyl)thiophene-2-carbonitrile] | – | > 2000 | 1320 | > 2000 | 1550 | 1910 | 1920 | > 2000 | 1340 | 1200 | – | – | – | > 2000 |
| CC(=O)c1c(S/C=C\C(=O)O)[nH]c2c(Br)ccc(Cl)c2c1=O [Compound 67, (Z)-3-((3-acetyl-8-bromo-5-chloro-4-oxo-1,4-dihydroquinolin-2-yl)thio)acrylic acid] | > 2000 | > 2000 | > 2000 | > 2000 | > 2000 | > 2000 | > 2000 | > 2000 | > 2000 | > 2000 | > 2000 | > 2000 | > 2000 | > 2000 |
| CC(=O)c1c(SCc2cccc(C#N)c2)[nH]c2c(Br)ccc(Cl)c2c1=O [Compound 27, 3-(((3-acetyl-8-bromo-5-chloro-4-oxo-1,4-dihydroquinolin-2-yl)thio)methyl)benzonitrile] | > 2000 | > 2000 | > 2000 | > 2000 | > 2000 | > 2000 | > 2000 | > 2000 | > 2000 | > 2000 | > 2000 | > 2000 | > 2000 | > 2000 |
| CC(=O)c1c([S+](C)[O-])n(C(=O)c2ccc(Br)cc2)c2c(Br)ccc(Cl)c2c1=O (stereo not shown) [Compound 9, 3-acetyl-8-bromo-1-(4-bromobenzoyl)-5-chloro-2-(methylsulfinyl)quinolin-4(1H)-one] | 1100 | 1630 | 1160 | > 2000 | 1600 | 1350 | 1590 | > 2000 | 1050 | 990 | 1180 | 1970 | 1200 | 1470 |
| CC(=O)c1c([S+]([O-])Cc2ccc(SC(F)(F)F)cc2)[nH]c2c(Cl)ccc(Cl)c2c1=O (stereo not shown) [Compound 79, 3-acetyl-5,8-dichloro-2-((4-((trifluoromethyl)thio)benzyl)sulfinyl)quinolin-4(1H)-one] | > 2000 | > 2000 | > 2000 | > 2000 | > 2000 | > 2000 | > 2000 | > 2000 | > 2000 | > 2000 | – | – | – | – |
| CC(=O)c1c(SCc2cc(Cl)ccc2Cl)[nH]c2c(Br)ccc(Cl)c2c1=O [Compound 43, 3-acetyl-8-bromo-5-chloro-2-((2,5-dichlorobenzyl)thio)quinolin-4(1H)-one] | > 2000 | > 2000 | > 2000 | > 2000 | > 2000 | > 2000 | > 2000 | > 2000 | > 2000 | > 2000 | > 2000 | > 2000 | > 2000 | > 2000 |
| CC(=O)c1c([S+]([O-])Cc2ccc(S(F)(F)(F)(F)F)cc2F)[nH]c2c(Br)ccc(Cl)c2c1=O (stereo not shown) [Compound 69, 3-acetyl-8-bromo-5-chloro-2-((2-fluoro-4-(pentafluoro-16-sulfanyl)benzyl)sulfinyl)quinolin-4(1H)-one] | 1080 | 1620 | 1500 | 1890 | 1870 | 1110 | 1000 | > 2000 | 1120 | 1040 | 1200 | 1500 | 1260 | 1300 |
| CC(=O)c1c([S+](C)[O-])[nH]c2c(Br)ccc(Cl)c2c1=O (stereo not shown) [Compound 1, 3-acetyl-8-bromo-5-chloro-2-(methylsulfinyl)quinolin-4(1H)-one] | 1350 | 1670 | 1340 | > 2000 | 1830 | 1650 | 1900 | > 2000 | 1500 | 1230 | 1510 | 1940 | 1190 | 1640 |
| CC(=O)c1c([S+]([O-])c2ccccc2)[nH]c2c(Br)ccc(Cl)c2c1=O (stereo not shown) [Compound 13, 3-acetyl-8-bromo-5-chloro-2-(phenylsulfinyl)quinolin-4(1H)-one] | > 2000 | > 2000 | > 2000 | > 2000 | > 2000 | > 2000 | > 2000 | > 2000 | > 2000 | > 2000 | – | – | – | – |
| CC(=O)c1c(SCc2ccc(F)c(Cl)c2)[nH]c2c(Br)ccc(Cl)c2c1=O [Compound 30, 3-acetyl-8-bromo-5-chloro-2-((3-chloro-4-fluorobenzyl)thio)quinolin-4(1H)-one] | > 2000 | > 2000 | > 2000 | > 2000 | > 2000 | > 2000 | > 2000 | > 2000 | > 2000 | > 2000 | > 2000 | > 2000 | > 2000 | > 2000 |
| CSc1c(C(C)=O)c(=O)c2c(Cl)ccc(Br)c2n1C [Compound 5, 3-acetyl-8-bromo-5-chloro-1-methyl-2-(methylthio)quinolin-4(1H)-one] | > 2000 | > 2000 | > 2000 | > 2000 | > 2000 | > 2000 | > 2000 | > 2000 | > 2000 | > 2000 | > 2000 | > 2000 | > 2000 | > 2000 |
| CSc1c(C(C)=O)c(=O)c2c(Cl)ccc(Br)c2n1C(C)=O [Compound 18, 1,1′-(8-bromo-5-chloro-2-(methylthio)-4-oxoquinoline-1,3(4H)-diyl)bis(ethan-1-one)] | > 2000 | > 2000 | > 2000 | > 2000 | > 2000 | > 2000 | > 2000 | > 2000 | > 2000 | > 2000 | > 2000 | > 2000 | > 2000 | > 2000 |
